# According to patent publication US9023852B2, “1, 2, 4-thiadiazol-5-ylpiperazine derivatives useful in the treatment of neurodegenerative diseases” (Remynd NV, priority 2011, dated 2015):
# Tested on: M17—3TAU(P301L) cells
# Experiment: Neuroblastoma tauopathy model: inhibition of TAU-induced cytotoxicity (LDH)
# Type: cell-based
# Details: Homo sapiens, 168 h; inhibition of TAU-induced toxicity (LDH), 7 days differentiation with retinoic acid
# Description: A TAU expression plasmid was constructed by sub-cloning the cDNA encoding for human TAU-P301L protein, wherein proline at position 301 is substituted by a leucine residue, into mammalian expression vector pcDNA3.1 resulting in the plasmid pcDNA3.1-TAUP301L. Plasmids pcDNA3.1 and pcDNA3.1-TAU P301L were transfected into human neuroblastoma cells (BE-M17; ATCC No. CRL-2267™) using lipofectamine reagent and subsequently, independent clonal cell lines with the plasmids stably integrated into the genome were selected by antibiotic resistance selection (Geneticin (G418)), resulting in cell lines M17.pcDNA3 and M17—3TAUP301L. Expression of the TAUP301L gene in the M17—3TAUP301L cells was confirmed by Western blot analysis.
# Differentiation of the cells with RA leads to phosphorylation and subsequent aggregation of TAU, inducing a tauopathy in these cells. Cytotoxicity of cells was measured by quantification of lactate dehydrogenase (LDH) levels. In dead cells LDH is leaked out of the cells into the medium due to a loss of plasma-membrane integrity.
# Briefly, 3 days preceding the experiment pre-cultures of M17.pcDNA3 and M17—3TAU(P301L) cells were prepared, starting from a stock culture, at a density of 50.000-100.000 cells/cm2 in detection medium (Optimem Reduced Serum without phenol red (Gibco, Cat. 31985-047) supplemented with 1% fetal calf serum (FCS), 1 mM sodium pyruvate, 1× non-essential amino acids (NEAA), 500 μg/ml G418 and 0.5× antibiotic/antimycotic (ABAM)). At the day of the experiment these precultures were diluted to ˜0, 1.106 cells/ml in detection medium without FCS and 60 μL of this suspension is dispensed per well into a 96-well microtiter plate. After 3 hours of incubation at 37° C./5% CO2 an equal volume of detection medium containing 2.5 μM RA was added and subsequently incubated for 7 days at 37° C./5% CO2. After 7 days, LDH activity was determined using the Promega Cytotox 96 Non-Radioactive cytotoxicity assay (Cat. G1780), according the manufacturer's instructions. Cytotoxicity is measured as the ratio of LDH increase in the supernatant divided by the LDH increase in the total cell suspension (sum of the LDH measured in cells and supernatant).
# The M17—3TAU(P301L) cell line makes it possible to assess the ability of novel compounds to inhibit TAU-induced cytotoxicity. […] Compounds were tested for their ability to hamper TAU-induced toxicity at different concentrations, ranging from low non-effective concentrations to high potent concentrations. Afterwards, the dose-dependent inhibition curve was used to calculate their EC50 (Table 1).
row,Structure (SMILES),EC50 [nM]
1,"Cc1ncc(-c2nsc(N3CCN(CCc4ccccc4)CC3)n2)cn1 [Example 178, 3-(2-methylpyrimidin-5-yl)-5-(4-phenethylpiperazin-1-yl)-1,2,4-thiadiazole]",13.2
2,"COc1ccc(CCN2CCN(c3nc(-c4cccc(C#N)c4)ns3)CC2)cn1 [Example 115, 3-(5-{4-[2-(6-Methoxy-pyridin-3-yl)-ethyl]-piperazin-1-yl}-[1,2,4]thiadiazol-3-yl)-benzonitrile]",2.3
3,"Cc1cc(-c2nsc(N3CCN(CCc4ccc(F)cc4)CC3)n2)cnn1 [Example 174, 5-(4-(4-fluorophenethyl)piperazin-1-yl)-3-(6-methylpyridazin-4-yl)-1,2,4-thiadiazole]",12.6
4,"COc1ccc(C(F)CN2CCN(c3nc(-c4ccc(Cl)cc4)ns3)CC2)cc1 (stereo not shown) [Example 64, 1-[3-(4-Chloro-phenyl)-[1,2,4]thiadiazol-5-yl]-4-[2-fluoro-2-(4-methoxy-phenyl)-ethyl]-piperazine]",9.8
5,"COc1cccc(CCN2CCN(c3nc(-c4ccc(OC(F)(F)F)cc4)ns3)CC2)c1 [Example 36, 1-[2-(3-Methoxy-phenyl)-ethyl]-4-[3-(4-trifluoromethoxy-phenyl)-[1,2,4]thiadiazol-5-yl]-piperazine]",119
6,"COc1ccc(CCN2CCN(c3nc(-c4cccc(F)c4)ns3)CC2)cc1 [Example 84, 1-[3-(3-Fluoro-phenyl)-[1,2,4]thiadiazol-5-yl]-4-[2-(4-methoxy-phenyl)-ethyl]-piperazine]",0.7
7,"FC(F)(F)c1ccc(CCN2CCN(c3nc(-c4cncc(Cl)c4)ns3)CC2)cc1 [Example 152, 1-[3-(5-Chloro-pyridin-3-yl)-[1,2,4]thiadiazol-5-yl]-4-[2-(4-trifluoromethyl-phenyl)-ethyl]-piperazine]",215
8,"COc1ccccc1CCN1CCN(c2nc(-c3ccc(Cl)cc3)ns2)CC1 [Example 27, 1-[3-(4-Chloro-phenyl)-[1,2,4]thiadiazol-5-yl]-4-[2-(2-methoxy-phenyl)-ethyl]-piperazine]",16.7
9,"Cc1ccccc1CN1CCN(c2nc(-c3cccc(C#N)c3)ns2)CC1 [Example 119, 3-{5-[4-(2-Methyl-benzyl)-piperazin-1-yl]-[1,2,4]thiadiazol-3-yl}-benzonitrile]",25
10,"COc1cc(CCN2CCN(c3nc(-c4ccnc(C)c4)ns3)CC2)ccn1 [Example 172, 5-(4-(2-(2-methoxypyridin-4-yl)ethyl)piperazin-1-yl)-3-(2-methylpyridin-4-yl)-1,2,4-thiadiazole]",14.4
11,"COc1ccc(CCN2CCN(c3nc(-c4ccc(OC(F)(F)F)cc4)ns3)CC2)cc1 [Example 37, 1-[2-(4-Methoxy-phenyl)-ethyl]-4-[3-(4-trifluoromethoxy-phenyl)-[1,2,4]thiadiazol-5-yl]-piperazine]",2.9
12,"Fc1ccc(CCN2CCN(c3nc(-c4ccc(F)c(F)c4)ns3)CC2)cc1 [Example 103, 1-[3-(3,4-Difluoro-phenyl)-[1,2,4]thiadiazol-5-yl]-4-[2-(4-fluoro-phenyl)-ethyl]-piperazine]",3.4
13,"Cc1ccc(-c2nsc(N3CCN(CCc4ccc(F)cc4)CC3)n2)cn1 [Example 96, 1-[2-(4-Fluoro-phenyl)-ethyl]-4-[3-(6-methyl-pyridin-3-yl)-[1,2,4]thiadiazol-5-yl]-piperazine]",28.1
14,"Clc1cncc(-c2nsc(N3CCN(CCN4CCCCC4)CC3)n2)c1 [Example 163, 3-(5-chloropyridin-3-yl)-5-(4-(2-(piperidin-1-yl)ethyl)piperazin-1-yl)-1,2,4-thiadiazole]",13
15,"COc1cccc(CCN2CCN(c3nc(-c4ccc(F)cc4OC)ns3)CC2)c1 [Example 66, 1-[3-(4-Fluoro-2-methoxy-phenyl)-[1,2,4]thiadiazol-5-yl]-4-[2-(3-methoxy-phenyl)-ethyl]-piperazine]",1.5
16,"Clc1ccc(CCN2CCN(c3nc(-c4ccnc(Cl)c4)ns3)CC2)cc1 [Example 169, 5-(4-(4-chlorophenethyl)piperazin-1-yl)-3-(2-chloropyridin-4-yl)-1,2,4-thiadiazole]",10.4
17,"Clc1ccnc(-c2nsc(N3CCN(CCc4ccccc4)CC3)n2)c1 [Example 120, 1-[3-(4-Chloro-pyridin-2-yl)-[1,2,4]thiadiazol-5-yl]-4-phenethyl-piperazine]",16.1

row,Structure (SMILES),EC50 [nM]
1,"COc1cccc(CCN2CCN(c3nc(-c4ccccc4Cl)ns3)CC2)c1 [Example 57, 1-[3-(2-Chloro-phenyl)-[1,2,4]thiadiazol-5-yl]-4-[2-(3-methoxy-phenyl)-ethyl]-piperazine]",14.5
2,"COc1ccc(C(=O)CN2CCN(c3nc(-c4ccc(Cl)cc4)ns3)CC2)cc1 [Example 53, 2-{4-[3-(4-Chloro-phenyl)-[1,2,4]thiadiazol-5-yl]-piperazin-1-yl}-1-(4-methoxy-phenyl)-ethanone]",12.6
3,"COc1cccc(CCN2CCN(c3nc(-c4ccc(C)cc4)ns3)CC2)c1 [Example 16, 1-[2-(3-Methoxy-phenyl)-ethyl]-4-(3-p-tolyl-[1,2,4]thiadiazol-5-yl)-piperazine]",65.3
4,"Cc1ccc(-c2nsc(N3CCN(CCc4ccccc4)CC3)n2)cc1 [Example 4, 1-Phenethyl-4-(3-p-tolyl-[1,2,4]thiadiazol-5-yl)-piperazine]",115
5,"FC(F)(F)Oc1cccc(CCN2CCN(c3nc(-c4ccc(Cl)cc4)ns3)CC2)c1 [Example 38, 1-[3-(4-Chloro-phenyl)-[1,2,4]thiadiazol-5-yl]-4-[2-(3-trifluoromethoxy-phenyl)-ethyl]-piperazine]",211
6,"COc1cc(CCN2CCN(c3nc(-c4ccc(F)c(F)c4)ns3)CC2)ccn1 [Example 106, 1-[3-(3,4-Difluoro-phenyl)-[1,2,4]thiadiazol-5-yl]-4-[2-(2-methoxy-pyridin-4-yl)-ethyl]-piperazine]",3
7,"COc1cccc(CCN2CCN(c3nc(-c4ccccc4OC)ns3)CC2)c1 [Example 35, 1-[2-(3-Methoxy-phenyl)-ethyl]-4-[3-(2-methoxy-phenyl)-[1,2,4]thiadiazol-5-yl]-piperazine]",3.5
8,"COc1cc(CCN2CCN(c3nc(-c4ccnc(Cl)c4)ns3)CC2)ccn1 [Example 168, 3-(2-chloropyridin-4-yl)-5-(4-(2-(2-methoxypyridin-4-yl)ethyl)piperazin-1-yl)-1,2,4-thiadiazole]",1.5
9,"COc1ccc(CC(C)N2CCN(c3nc(-c4ccc(Cl)cc4)ns3)CC2)cc1 (stereo not shown) [Example 73, 1-[3-(4-Chloro-phenyl)-[1,2,4]thiadiazol-5-yl]-4-[2-(4-methoxy-phenyl)-1-methyl-ethyl]-piperazine]",0.9
10,"COc1cccc(CCN2CCN(c3nc(-c4cccc(OC)c4)ns3)CC2)c1 [Example 15, 1-[2-(3-Methoxy-phenyl)-ethyl]-4-[3-(3-methoxy-phenyl)-[1,2,4]thiadiazol-5-yl]-piperazine]",21.4
11,"C=C(CN1CCN(c2nc(-c3ccc(Cl)cc3)ns2)CC1)c1ccc(OC)cc1 [Example 59, 1-[3-(4-Chloro-phenyl)-[1,2,4]thiadiazol-5-yl]-4-[2-(4-methoxy-phenyl)-allyl]-piperazine]",75
12,"Fc1ccc(-c2nsc(N3CCN(CCc4ccccc4)CC3)n2)cc1F [Example 101, 1-[3-(3,4-Difluoro-phenyl)-[1,2,4]thiadiazol-5-yl]-4-phenethyl-piperazine]",3.2
13,"COc1ccc(CCN2CCN(c3nc(-c4ccc(Cl)cc4)ns3)CC2)cc1 [Example 17, 1-[3-(4-Chloro-phenyl)-[1,2,4]thiadiazol-5-yl]-4-[2-(4-methoxy-phenyl)-ethyl]-piperazine]",0.8
14,"Cc1ccccc1CN1CCN(c2nc(-c3cncc(Cl)c3)ns2)CC1 [Example 151, 1-[3-(5-Chloro-pyridin-3-yl)-[1,2,4]thiadiazol-5-yl]-4-(2-methyl-benzyl)-piperazine]",8.2
15,"COc1cccc(-c2nsc(N3CCN(Cc4ccccc4C)CC3)n2)c1 [Example 13, 1-[3-(3-Methoxy-phenyl)-[1,2,4]thiadiazol-5-yl]-4-(2-methyl-benzyl)-piperazine]",215
16,"FC(F)(F)c1ccc(CCN2CCN(c3nc(-c4cccc(Cl)c4)ns3)CC2)cc1 [Example 145, 1-[3-(3-Chloro-phenyl)-[1,2,4]thiadiazol-5-yl]-4-[2-(4-trifluoromethyl-phenyl)-ethyl]-piperazine]",462
17,"Cc1cc(-c2nsc(N3CCN(CCc4ccccc4)CC3)n2)cnn1 [Example 173, 3-(6-methylpyridazin-4-yl)-5-(4-phenethylpiperazin-1-yl)-1,2,4-thiadiazole]",2.9
